Experimental data as given in patent US9476050B2, “Combination therapy” (TURUN YLIOPISTO, priority 2011, dated 2016).
Entries after “also recorded” stand apart in the source; their conditions may differ.

Key:
Assay type in all cases: cell-based, human
[1] = system: T98G glioblastoma cells; experiment: Apoptosis assay by sub-G0/G1 fraction estimation (apoptotic nuclear fragmentation, PI staining, FACS); conditions: for level of apoptosis in PME-1 depleted cells: PME-1 siRNA 48 hrs, then drug 24 hrs, T98G
Protocol: The percentage of the sub-G0/G1 fraction containing fragmented nuclei stained with Propidium iodide (P1) was taken as a measure of apoptotic cells. 3.5-4×10^4 cells were plated in 24-well plates, transfected with siRNA for 48 hrs, and then treated with indicated concentration of test compounds in fresh media. After 24 hrs of treatment, both floating and adherent cells were harvested by centrifugation. Cell pellets were resuspended in 400 μl of hypotonic PI buffer, containing 40 mM Tri-sodium citrate (Merck), 0.3% Triton X-100 (Sigma-Aldrich) and 50 μg/ml Propidium iodide (Sigma-Aldrich) in PBS, and incubated at room temperature for 10 minutes in dark. The flow cytometric analysis of PI stained nuclei was performed and the recorded data was analyzed using a FACScan flow cytometer and software (Becton Dickinson) respectively.
In experiments using pan-caspase inhibitor, cells were kept in growth media containing 30 μM Z-VAD-FMK starting from 18 hrs after transfection till the PI staining. For treatment with PP2A activators FTY720, Sodium Selenate and Xylulose-5-phosphate, cells were kept in respective drugs throughout the experiment starting from 24 hrs after transfection. PP2A inhibitor, Okadaic acid, treatment was given for 24 hrs after 24 hrs of transfection.
The T98G cells transfected with siRNA for 48 hrs were given drug treatments for 24 hrs and were subsequently lysed, and their nuclei were stained using hypotonic propidium iodide buffer. The lysates were analysed for changes in the sub-G0/G1 fraction of fragmented nuclei by flow cytometry (FACS) (FIG. 1B). Condensation and fragmentation of nucleus is a key biochemical feature of apoptosis and sub-G0/G1 analysis has been widely used for detection of apoptosis (FEBS Lett., 1986, 194(2):347-50; Cytometry, 1991, 12(4):323-329; Nature Protocols, 2006, 1:1458-1461).

[2] = system: T98G glioblastoma cells; experiment: Colony formation assay, T98G
Text: (§1) Cells plated in very low density (4-6×10^3) in 6-well plates were allowed to grow for about 7 days until they form small colonies. These cells were then transfected with Scrambled or PME-1 siRNA using Lipofectamine RNAiMAX reagent (Invitrogen) according to the manufacturer's instructions. After 48 hrs, treatments were given with indicated concentration of chemical drugs for another 48 hrs. Cell colonies were washed with PBS, fixed with 3.7% formaldehyde and stained with 0.2% crystal violet solution (made in 10% ethanol) for 15 minutes at room temperature each. Excess stain was removed by repeated washings with PBS. Plates were dried and pictures were taken with Olympus SP-600UZ camera or Epson perfection V700 scanner and analysed with ImageJ.
(§2) The efficacy of this treatment combination was then tested by colony formation assay in T98G glioblastoma cells and another glioblastoma cell line U118MG. For this experiment, these cells were grown in 6-well plates until the formation of small colonies which were then transfected with Scrambled or PME-1 siRNA for 48 hrs followed by treatment with STS at the indicated concentrations for another 48 hrs.

[3] = system: U118MG glioblastoma cells; experiment: Colony formation assay, U118MG
Text: as §1, §2

[4] = system: U251MG glioblastoma cells; experiment: Colony formation assay, U251MG; conditions: scrambled or PME-1 siRNA, then drug 2 days; FIG. 5C
Text: as §1

[5] = system: U87MG glioblastoma cells; experiment: Colony formation assay, U87MG; conditions: scrambled or PME-1 siRNA, then drug 2 days; FIG. 5D
Text: as §1

[6] = system: T98G glioblastoma cells; experiment: Cell viability assay, CellTiter-glo (CTG); conditions: PME-1 siRNA plus STS treatment
Protocol: Cell viability was determined by CellTiter-glo (CTG) assay which measures the cellular ATP levels as an indicator of metabolically active and viable cells. CTG reagent kit was purchased from Promega Corp. and assays were performed according to their recommendations. Assays were performed in white polystyrene 96-well plates (Nunc, Thermo Fisher Scientific Inc.) and luminescence was measured with Perkin Elmer Victor2 Plate Reader.

[7] = system: Caspase-3 and -7 activity; experiment: Caspase-Glo 3/7 assay in T98G cells; conditions: PME-1 depletion in combination with STS treatment
Protocol: Caspase-3 and -7 activity was measured by luminescence based method, which utilize a substrate containing Caspase-3 and -7 target peptide DEVD, named Caspase-Glo 3/7 Assay (Promega Corp.). Assays were performed in white polystyrene 96-well plates (Nunc, Thermo Fisher Scientific Inc.) according to manufacturer's instructions and luminescence was measured with Perkin Elmer Victor2 Plate Reader.

[8] = PME-1 depletion or STS treatment alone
[9] = combination of PME-1 siRNA 48 hrs and STS 48 hrs

CN[C@@H]1C[C@H]2O[C@@](C)([C@@H]1OC)n1c3ccccc3c3c4c(c5c6ccccc6n2c5c31)C(=O)NC4 [Staurosporine, [9S-(9α,10β,11β, 13α)]-2,3,10,11, 12,13-Hexahydro-10-methoxy-9-methyl-11-(methylamino)-9,13-epoxy-1H,9H-diindolo[1,2,3-gh:3′,2′,1′-lm] pyrrolo[3,4-j][1,7] benzodiazonin-1-one]
Potentiation % (apoptotic nuclear fragmentation) ([1]; 50 nM drug, T98G transfected with PME-1 specific dsRNA): 50-60%
level of apoptosis in PME-1 depleted cells [1]: very high level of apoptosis
level of apoptosis in PME-1 depleted cells ([1]; listed as STS): dose dependent manner; also recorded: highly sensitive
concentration above which STS alone induces cell death ([1]; control (Scrambled siRNA transfected) T98G cells): higher than 50 nM
concentration above which STS alone gives limited amount of cell death ([1]; untransfected T98G cells): higher than 30 nM
colony formation ability [2, 8]: moderately reduced
colony formation ability [2, 9]: almost complete loss of colonies
colony formation ability [3, 8]: moderately reduced
colony formation ability [3, 9]: almost complete loss of colonies
cell killing activity with PME-1 depletion (colony formation) [4]: enhanced the cell killing activity
cell killing activity with PME-1 depletion (colony formation) [5]: enhanced the cell killing activity
cell viability [6]: drastic decrease
increase of the activity of Caspase-3/7 [7]: above 6 fold
